From article PMC6197077 (Frontiers in Immunology, 2018)
Where “and” joins values, the source holds several entries; their conditions need not be identical. Equal entries are not always repeated. Entries after “also recorded” stand apart in the source; their conditions may differ. Where two headings read alike, the source gives them in different places.

Columns and labels:
P14 CD8+ T cells [1] = format: cell-based, mice
[2] = system: TCR of naïve P14 CD8+ T cells (TCR:pMHC, H2D^b); format: binding, mice; conditions: for mean population 2D affinity (AcKa): naïve CD8+ P14 splenocytes, 50 contact cycles per cell, 3 individual experiments; for 2D affinity, result in words: naïve P14 CD8+ T cells
P14 CD8+ T cells [3] = format: cell-based, mice; conditions: for IRF4 MFI at low peptide doses: P14 CD8+ T cells (Figure 4H)
[4] = terminal cysteine; ref [27], [34]-[36]; cited from earlier work
P14 TCR = conditions: cited from earlier work; for Kd: SPR
[5] = system: P14 TCR (TCR:pMHC, D^b D227K); format: binding, mice; conditions: for peak bond lifetime under force, CD8-null: BFP force-clamp, absence of CD8 (CD8-null pMHC), peak of force curve, >1,000 bond lifetimes per curve; for bond lifetime by BFP for the TCR alone: restated range in Discussion; for bond lifetime at ~10 pN, CD8-null: ~10 pN of force, CD8-null (Figures 3D,E)
polyclonal CD8+ T cells [6] = format: cell-based, mice
P14 CD8+ T cells [7] = format: cell-based, mice; conditions: for %Nur77+: representative of 3 experiments, n = 3-4 mice; for signal strength as measured by Nur77 upregulation: P14 CD8 T cells re-stimulated ex vivo; for ligand potency: at equivalent peptide doses, not factoring in peptide loading
MHC class I (D^b) = conditions: terminal cysteine; ref [27], [34]-[36]; cited from earlier work
[8] = system: TCR and CD8 of naïve P14 CD8+ T cells (TCR:pMHC:CD8, D^b); format: binding, mice; conditions: for normalized adhesion bonds, mean bond number (-ln(1-Pa(s))/mpMHC): P14 CD8+ T cells, wild type (CD8-intact) pMHC monomers, 3 individual experiments; for total bond number hierarchy: single P14 T cell probed against all three pMHC (Figure 2B)
[9] = system: P14 TCR with CD8 coreceptor (TCR:pMHC:CD8); format: binding, mice; conditions: for peak bond lifetime under force, CD8-intact: BFP force-clamp, CD8-intact pMHC, peak of force curve, >1,000 bond lifetimes per curve; for bond lifetime at ~10 pN, CD8-intact: ~10 pN of force, CD8-intact (Figures 3F,G)
polyclonal CD8+ T cells [10] = format: cell-based, mice; conditions: for Nur77 MFI: polyclonal CD8 T cells, 1 uM (Figure 6F)
pMHC (T-2D^b cell line) = conditions: competition on T-2D^b cell line; versus 9-mer 41C; ref [8] Gairin et al.; cited from earlier work
Source text: (§1) The question is to what extent loading of MHC affects the T cell response and their biology.

[11] = system: T cells interacting with dendritic cells; conditions: peptide pulsed DCs, lymph node; versus 41C; ref Henrickson et al. [36]; cited from earlier work
Source text: as §1

[12] = Boulter et al., ref [52], read-out: 3D affinity (as restated in Discussion)
[13] = P14 CD8+ T cells, D8 p.i., range of peptide doses

Sequence | mean population 2D affinity (AcKa) [2] [μm^4] | IRF4 MFI at low peptide doses (P14 CD8+ T cells [3]) | Kd (P14 TCR; [12]) [µM] | bond lifetime by SPR (P14 TCR; ref [51]) | peak bond lifetime under force, CD8-null [5] | bond lifetime by BFP for the TCR alone [5] [s] | bond lifetime at ~10 pN, CD8-null [5] | %Nur77+ (P14 CD8+ T cells [7]; [13]) | signal strength as measured by Nur77 upregulation (P14 CD8+ T cells [7]) | ligand potency (P14 CD8+ T cells [7]) [M > 41C > 41CGI] | normalized adhesion bonds, mean bond number (-ln(1-Pa(s))/mpMHC) [8] [μm^2] | total bond number hierarchy [8] [M> 41C> 41CGI] | peak bond lifetime under force, CD8-intact [9] | bond lifetime at ~10 pN, CD8-intact [9] | Nur77 MFI (polyclonal CD8+ T cells [10]) | 2D affinity, result in words [2] | also measured
KAVYNFATC [41C] | 6.62E-04 | difference in IRF4 MFI | 2.3 | ~ 0.5 s | ~ 0.9 s | 0.8 to 0.9 | longer bond lifetime than 41M and dramatically more so than 41CGI; also recorded: no significant difference in bond lifetime between 41M and 41C | significantly higher frequencies of Nur77+ CD8+ T cells than those stimulated with 41CGI | significantly stronger signals than 41CGI stimulated cells | 41 | 1.01E-01 | 41 | ~ 1.9 s | no significant difference in bond lifetime between 41M and 41C | not significantly different | – | sensitivity to antigen (P14 CD8+ T cells [1]; 41M versus 41C, in our experiments): same sensitivity to antigen; functional responses read out by Nur77, IFNγ and IL-2 (P14 CD8+ T cells [1]; Discussion): larger responses; IRF4 MFI at highest peptide dose (P14 CD8+ T cells [3]; 1 uM peptide, P14 CD8+ T cells, 41C versus 41CGI): did not observe a difference between 41C and 41CGI; peptide dimer formation [4]: form peptide dimers; IRF4 expression (polyclonal CD8+ T cells [6]; polyclonal CD8 T cells, 1 uM, 41M versus 41C (Figures 6E-I)): only a slight difference between 41M and 41C; stability in the MHC (MHC class I (D^b)): decreased stability in the MHC
KAVYNFATCGI [41CGI] | 1.55E-04 | difference in IRF4 MFI | 3.5 | – | ~ 0.1 s | – | – | – | – | 41 | 2.93E-02 | 41 | ~ 1.5 s | – | not significantly different | lowest 2D affinity of the three, it still had a relatively high 2D affinity | cytokine production (P14 CD8+ T cells [1]): significantly diminished cytokine production; IRF4 MFI at highest peptide dose (P14 CD8+ T cells [3]): did not observe a difference between 41C and 41CGI; efficiency at competing for pMHC (pMHC (T-2D^b cell line)): six times more efficient; fold increase of peak bond lifetime by CD8 contribution ([9]; CD8-intact versus CD8-null pMHC): 15 fold and ~ 15 fold
KAVYNFATM [41M] | 1.04E-03 | difference in IRF4 MFI | – | ~ 0.5 s | ~ 0.8 s | 0.8 to 0.9 | no significant difference in bond lifetime between 41M and 41C | higher percentage of CD8+ T cells re-stimulated with 41M expressed Nur77 | stronger signal than 41C; also recorded: significantly stronger signals than 41CGI stimulated cells | 41 | 6.40E-01 | 41 | ~ 3.0 s | no significant difference in bond lifetime between 41M and 41C | – | highest 2D affinity | double producers of IFNγ and TNF (P14 CD8+ T cells [1]): significantly higher frequency; sensitivity to antigen (P14 CD8+ T cells [1]): same sensitivity to antigen; triple producers of IFNγ, TNF and IL-2 (P14 CD8+ T cells [1]): significantly higher frequency; IFNγ production (P14 CD8+ T cells [1]; P14 cells, range of peptide doses, 6 h ex vivo (Figures 5A,B)): produced the most IFNγ; agonist classification (P14 CD8+ T cells [1]; by 2D affinity measures and functionality): super agonist peptide variant; Kd (P14 TCR; ref [50], read-out: KD (3D affinity, SPR)): 17 µM; Kd (P14 TCR; ref [51], read-out: KD (3D affinity, SPR)): 9.1 µM; Kd (P14 TCR; ref [52], read-out: KD (3D affinity, SPR)): 2.3 µM; IRF4 expression (polyclonal CD8+ T cells [6]): only a slight difference between 41M and 41C; peptide dose at which Nur77 MFI peaks (P14 CD8+ T cells [7]; P14 CD8+ T cells re-stimulated ex vivo): 0.31 µM; Nur77 MFI (P14 CD8+ T cells [7]; [13]): higher MFI (peaking at 0.31 uM) than 41C and dramatically more so than 41CGI; transition to phase two T cell:DC contacts [11]: transitioned more quickly to phase two; frequency of Nur77 expression (polyclonal CD8+ T cells [10]): increased frequencies of Nur77 expression
